Measurements: publication PMC6264278, “Corydaline Inhibits Multiple Cytochrome P450 and UDP-Glucuronosyltransferase Enzyme Activities in Human Liver Microsomes” (Molecules, 2011)

Target: T1, CYP2A6 (Homo sapiens, UniProt P11509)
T1 construct: using pooled human liver microsomes; tissue BD Gentest Co. H161; host or cells: pooled human liver microsomes
T1 sequence (P11509 1-494): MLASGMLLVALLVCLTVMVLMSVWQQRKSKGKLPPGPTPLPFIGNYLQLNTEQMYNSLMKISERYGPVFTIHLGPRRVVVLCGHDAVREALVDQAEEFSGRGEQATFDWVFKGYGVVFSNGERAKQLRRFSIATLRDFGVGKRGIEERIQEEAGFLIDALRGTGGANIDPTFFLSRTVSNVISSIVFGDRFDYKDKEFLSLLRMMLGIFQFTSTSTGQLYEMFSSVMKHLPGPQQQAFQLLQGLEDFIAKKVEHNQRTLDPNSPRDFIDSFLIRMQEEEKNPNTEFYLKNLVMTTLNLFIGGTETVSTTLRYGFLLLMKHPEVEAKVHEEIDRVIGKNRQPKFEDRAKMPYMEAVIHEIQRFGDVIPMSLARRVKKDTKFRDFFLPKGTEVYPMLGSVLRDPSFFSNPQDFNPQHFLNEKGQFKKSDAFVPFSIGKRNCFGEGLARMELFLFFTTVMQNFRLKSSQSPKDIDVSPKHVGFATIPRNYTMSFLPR
Assay: CYP2A6 coumarin 7-hydroxylation inhibition, cocktail assay in pooled human liver microsomes
Assay type: in vitro ADME
Settings: 2.5 μM coumarin, no inhibition at 200 μM of corydaline; for IC50 no preincubation, CYP2A6 coumarin 7-hydroxylation: pooled human liver microsomes (H161)
Protocol: Phenacetin O-deethylase, coumarin 7-hydroxylase, amodiaquine N-deethylase, diclofenac 4-hydroxylase, S-mephenytoin 4-hydroxylase, bufuralol hydroxylase, and midazolam 1’-hydroxylase activities were determined as probe activities for CYP1A2, CYP2A6, CYP2C8, CYP2C9, CYP2C19, CYP2D6, and CYP3A4, respectively, using cocktail incubation and liquid chromatography-tandem mass spectrometry (LC/MS/MS). The incubation mixtures were prepared in a total volume of 200 μL, as follows: pooled human liver microsomes (0.25 mg/mL), 1.3 mM NADPH, 3.3 mM MgCl2, 50 mM potassium phosphate buffer (pH 7.4), and a cocktail of probe substrates and various concentrations of corydaline (1−200 μM). The substrates were used at concentrations approximately equal to their respective Km values: 50 μM phenacetin, 2.5 μM coumarin, 2.5 μM amodiaquine, 10 μM diclofenac, 100 μM S-mephenytoin, 5 μM bufuralol, and 2.5 μM midazolam. After a 3-min pre-incubation period at 37 °C, the reactions were initiated by addition of an NADP generating system and incubated for 20 min at 37 °C in a shaking water bath. After incubation, the reaction was stopped by placement of the tubes on ice and addition of 100 μL of ice-cold methanol containing internal standards (^13C2,^15N-acetaminophen for acetaminophen and N-desethylamodiaquine, d5-7-hydroxycoumarin for 7-hydroxycoumarin, ^13C6-4-hydroxydiclofenac for 4-hydroxydiclofenac, d3-4-hydroxy-mephenytoin for 4-hydroxymephenytoin and hydroxymidazolam, d9-1-hydroxybufuralol for 1-hydroxybufuralol). The incubation mixtures were then centrifuged at 13,000 × g for 5 min. All incubations were performed in triplicate and the mean values were used. […] The reaction was started by addition of a cocktail of CYP probe substrates.
All 7 metabolites produced from the cocktail of CYP isoform-specific substrates were simultaneously determined by LC/MS/MS [25]. […] Quantification was performed by selected reaction monitoring (SRM) of the [M+H]^+ ion and the related product ion for each metabolite. […]

IC50 no preincubation, CYP2A6 coumarin 7-hydroxylation: negligible inhibition
IC50 no preincubation, CYP2A6 coumarin 7-hydroxylation (listed as corydaline): No inhibition **
IC50 with preincubation, CYP2A6 coumarin 7-hydroxylation (pre-incubated 30 min with NADPH): No inhibition **
Structure (SMILES): COc1cc2c(cc1OC)C1C(C)c3ccc(OC)c(OC)c3CN1CC2 (stereo not drawn) [Corydaline, 2,3,9,10-tetramethoxy-13-methyl-5,8,13,13a-tetrahydro-6H-isoquino[3,2-a]isoquinoline]
